Data from ChEMBL document CHEMBL3885861, “Open TG-GATES”.

Organism: Rattus norvegicus
Assay: Open TG-GATES - Regimen: Single
Type: toxicity, organism-based, Sprague-Dawley
Parameters: regimen Single, gender Male, age 6 weeks
Details: in vivo, po, 300 mg/kg, route gavage, dose level High; for APTT / Bas / Eos / Fbg / Hb / Ht / Lym / MCH / MCHC / MCV / Mono / Neu / PT / Plat / RBC / Ret / WBC: tissue Blood; for KIDNEY_L / KIDNEY_R / KIDNEY_TOTAL: tissue Kidney; for LIVER: tissue Liver; for A/G / ALP / ALT / AST / BUN / CRE / Ca / Cl / DBIL / GLC / IP / K / LDH / Na / PL / RALB / TBIL / TC / TG / TP / gamma-GTP: tissue Plasma

Brc1ccccc1 [BROMOBENZENE]
TERMINAL_BW (3 h): 190.3 g
APTT (3 h): 15.8 s
Bas (3 h): 0%
Eos (3 h): 0.8%
Fbg (3 h): 289.8 mg/dL
Hb (3 h): 14.1 g/dL
Ht (3 h): 41.4%
Lym (3 h): 76.6%
MCH (3 h): 21.7 pg
MCHC (3 h): 33.9%
MCV (3 h): 64 fL
Mono (3 h): 3.2%
Neu (3 h): 19.2%
PT (3 h): 12 s
Plat (3 h): 115.3 x10_4/uL
RBC (3 h): 648.4 x10_4/ul
Ret (3 h): 9.4%
WBC (3 h): 67.3 x10_2/uL
KIDNEY_L (3 h): 0.8 g
KIDNEY_R (3 h): 0.8 g
KIDNEY_TOTAL (3 h): 1.7 g
LIVER (3 h): 7.6 g
A/G (3 h): 0.9
ALP (3 h): 1696 IU/L
ALT (3 h): 48.2 IU/L
AST (3 h): 81.6 IU/L
BUN (3 h): 8 mg/dL
CRE (3 h): 0.1 mg/dL
Ca (3 h): 11 mg/dL
Cl (3 h): 105.2 meq/L
DBIL (3 h): 0.01 mg/dL
GLC (3 h): 191.6 mg/dL
IP (3 h): 10.9 mg/dL
K (3 h): 3.6 meq/L
LDH (3 h): 78.2 IU/L
Na (3 h): 141.6 meq/L
PL (3 h): 152.2 mg/dL
RALB (3 h): 2.7 g/dL
TBIL (3 h): 0.044 mg/dL
TC (3 h): 82.8 mg/dL
TG (3 h): 55.8 mg/dL
TP (3 h): 5.7 g/dL
gamma-GTP (3 h): 1.4 IU/L
TERMINAL_BW (6 h): 192 g
APTT (6 h): 15.8 s
Bas (6 h): 0%
Eos (6 h): 0.6%
Fbg (6 h): 293 mg/dL
Hb (6 h): 13.9 g/dL
Ht (6 h): 41.8%
Lym (6 h): 73%
MCH (6 h): 21 pg
MCHC (6 h): 33.3%
MCV (6 h): 63 fL
Mono (6 h): 2.2%
Neu (6 h): 23.8%
PT (6 h): 12.3 s
Plat (6 h): 107.3 x10_4/uL
RBC (6 h): 663.8 x10_4/ul
Ret (6 h): 9.1%
WBC (6 h): 56.8 x10_2/uL
KIDNEY_L (6 h): 0.8 g
KIDNEY_R (6 h): 0.8 g
KIDNEY_TOTAL (6 h): 1.6 g
LIVER (6 h): 7.4 g
A/G (6 h): 0.9
ALP (6 h): 1585.6 IU/L
ALT (6 h): 40.6 IU/L
AST (6 h): 72.2 IU/L
BUN (6 h): 9.2 mg/dL
CRE (6 h): 0.1 mg/dL
Ca (6 h): 10.9 mg/dL
Cl (6 h): 103.4 meq/L
DBIL (6 h): 0.008 mg/dL
GLC (6 h): 207.6 mg/dL
IP (6 h): 11.1 mg/dL
K (6 h): 3.8 meq/L
LDH (6 h): 80 IU/L
Na (6 h): 140.6 meq/L
PL (6 h): 156.8 mg/dL
RALB (6 h): 2.7 g/dL
TBIL (6 h): 0.04 mg/dL
TC (6 h): 93.2 mg/dL
TG (6 h): 29.4 mg/dL
TP (6 h): 5.7 g/dL
gamma-GTP (6 h): 1.4 IU/L
TERMINAL_BW (9 h): 190.5 g
APTT (9 h): 16.2 s
Bas (9 h): 0%
Eos (9 h): 0.6%
Fbg (9 h): 274.4 mg/dL
Hb (9 h): 14.2 g/dL
Ht (9 h): 41.9%
Lym (9 h): 79%
MCH (9 h): 21.5 pg
MCHC (9 h): 33.9%
MCV (9 h): 63.4 fL
Mono (9 h): 2.4%
Neu (9 h): 17.6%
PT (9 h): 12.2 s
Plat (9 h): 111.6 x10_4/uL
RBC (9 h): 660.8 x10_4/ul
Ret (9 h): 8.9%
WBC (9 h): 67.7 x10_2/uL
KIDNEY_L (9 h): 0.8 g
KIDNEY_R (9 h): 0.8 g
KIDNEY_TOTAL (9 h): 1.6 g
LIVER (9 h): 6.5 g
A/G (9 h): 0.9
ALP (9 h): 1518.8 IU/L
ALT (9 h): 40.8 IU/L
AST (9 h): 75.6 IU/L
BUN (9 h): 12 mg/dL
CRE (9 h): 0.2 mg/dL
Ca (9 h): 10.6 mg/dL
Cl (9 h): 103.6 meq/L
DBIL (9 h): 0.008 mg/dL
GLC (9 h): 184.8 mg/dL
IP (9 h): 11 mg/dL
K (9 h): 3.7 meq/L
LDH (9 h): 95.6 IU/L
Na (9 h): 140.6 meq/L
PL (9 h): 141.4 mg/dL
RALB (9 h): 2.6 g/dL
TBIL (9 h): 0.052 mg/dL
TC (9 h): 86.6 mg/dL
TG (9 h): 23.8 mg/dL
TP (9 h): 5.6 g/dL
gamma-GTP (9 h): 1.8 IU/L
TERMINAL_BW (24 h): 185.8 g
APTT (24 h): 18.7 s
Bas (24 h): 0%
Eos (24 h): 0.4%
Fbg (24 h): 204.8 mg/dL
Hb (24 h): 13.9 g/dL
Ht (24 h): 40.9%
Lym (24 h): 71.6%
MCH (24 h): 21.5 pg
MCHC (24 h): 34%
MCV (24 h): 63.2 fL
Mono (24 h): 1.8%
Neu (24 h): 25.8%
PT (24 h): 15.8 s
Plat (24 h): 111.5 x10_4/uL
RBC (24 h): 647.2 x10_4/ul
Ret (24 h): 7.3%
WBC (24 h): 73.2 x10_2/uL
KIDNEY_L (24 h): 0.8 g
KIDNEY_R (24 h): 0.8 g
KIDNEY_TOTAL (24 h): 1.7 g
LIVER (24 h): 8.6 g
A/G (24 h): 0.9
ALP (24 h): 2477 IU/L
ALT (24 h): 113.6 IU/L
AST (24 h): 481 IU/L
BUN (24 h): 14.6 mg/dL
CRE (24 h): 0.2 mg/dL
Ca (24 h): 10.2 mg/dL
Cl (24 h): 106.8 meq/L
DBIL (24 h): 0.024 mg/dL
GLC (24 h): 166.8 mg/dL
IP (24 h): 8.3 mg/dL
K (24 h): 4.1 meq/L
LDH (24 h): 784.6 IU/L
Na (24 h): 142 meq/L
PL (24 h): 130.8 mg/dL
RALB (24 h): 2.6 g/dL
TBIL (24 h): 0.074 mg/dL
TC (24 h): 85.6 mg/dL
TG (24 h): 67.4 mg/dL
TP (24 h): 5.5 g/dL
gamma-GTP (24 h): 1.4 IU/L
